Patent US20230285516A1 (priority 2020, published 2023)

What was measured:
IL-1β = IL-1β in co-culture supernatants (ELISA); format: cell-based, human; details: RA or OA co-cultures, day 7 of culture
Description: (§1) Cartilage and synovium co-cultures were performed from 9 patients with RA and 8 patients with OA who underwent hip or knee replacement (Table 1). Joint tissue was cultured with (a) RPMI (control), (b) 1% type I polymerized collagen, for 7 days. The supernatants and tissues of days 1 and 7 were […] collected. In the culture supernatants the concentration of IL-1β, IL-8, IL-10, IL-12, TNF-α and IFN-γ was quantified by ELISA and the results were normalized with total protein concentration. The expression of IL-1β and TNF-α was evaluated using histochemistry.
(§2) FIG. 3. Effect of type I polymerized collagen on IL-1β expression in supernatants of cartilage and synovium co-cultures from patients with rheumatoid arthritis (RA) or osteoarthritis (OA). The data represent the mean±SD of 9 co-cultures of cartilage and synovial tissue from patients with RA and of 8 co-cultures of patients with OA. Each culture was performed in triplicate for each condition. The results were normalized with the total protein concentration of the supernatant, determined by the Folin-Lowry micromethod. AR: left panel. OA: panel on the right. Basal: tissue in basal conditions.

IL-23 = IL-23 gene expression in co-cultured tissues (RT-PCR); format: cell-based, human; details: co-cultures from patients with RA, vs control
Excerpt: FIG. 7. Effect of type I polymerized collagen on the gene expression of pro- and anti-inflammatory cytokines and factors in the tissues of cartilage and synovial tissue co-cultures of patients with rheumatoid arthritis (RA). (A) Quantification of TNF-α, IL-6 and IL-10 gene expression and (B) Quantification of IL-23 and Foxp3 gene expression by RT-PCR in synovial membrane tissues and cartilage co-cultured for 7 days. The bars show the mean±SD of the transcript levels of the samples normalized through the expression of the housekeeping gene GADPH determined by 2ΔΔCt. The data represent the mean±SD of 9 cartilage and synovial co-cultures from RA patients. Each culture was performed in triplicate for each condition. Basal: tissue in basal conditions.

TNF-α = TNF-α in co-culture supernatants (ELISA); format: cell-based, human; details: RA or OA co-cultures, day 7 of culture
Description: as §1
as §2, with “4.” for “3.”, “TNF-α” for “IL-1β”, “synovial tissue” for “synovium”, “synovium” for “synovial tissue”, “Folin-Löwry” for “Folin-Lowry”, “conditions. […] No detectable levels of IL-12 and IFN-γ were determined in the cultures.” for “conditions.”

Th2 (CD4+/IL-4+) cells = assay: FACS of spleen Th2 cells in CIA models; format: in vivo, mice; details: early arthritis model, first sacrifice only
Description: Early Arthritis Model. Fifty mice with the same characteristics were immunized at the base of the tail with 100 μg of chicken type II collagen emulsified in complete Freund's adjuvant. The boost was applied on day 21 at the base of the tail with 100 μg of type II collagen emulsified with Freund's incomplete adjuvant. On the same boosting day, the treatments (a-d) were applied every week for six weeks. Three animals were euthanized in the sixth week and three in the thirteenth week. The spleen, lymph nodes, joint tissue, liver, lungs, kidneys and heart were obtained in order to assess the inflammatory infiltrate, the predominant cell populations and the expression of pro- and anti-inflammatory cytokines.
Established Arthritis Model. Arthritis was induced as in the previous model in 50 mice and the treatments were applied intramuscularly, after 2 weeks of the boost, every week for 6 weeks. Three animals were euthanized in the eighth week and three in the fifteenth week. The spleen, lymph nodes, joint tissue, liver, lungs, kidneys and heart were obtained in order to assess the inflammatory infiltrate, the predominant cell populations and the expression of pro- and anti-inflammatory cytokines. […]
FIG. 10. […] The intracellular production of IL-17A, IL-4, IFN-γ and Foxp3 by CD4+ T cells was detected by flow cytometry. The results are representative of 6 mice analyzed in each group. […]

[1] = end of treatment and 7-day follow-up

## collagen-polyvinylpyrrolidone [type I polymerized collagen]
IL-1β
  expression of IL-1β vs. the controls in the supernatants: decreased
IL-23
  transcription of IL-23 gene: negatively regulated
TNF-α
  expression of TNF-α vs. the controls in the supernatants: decreased
SARS-CoV2 (Covid-19); after 7 days
  fever, changes in heart rate and odynophagia: disappearance
  patients in whom cough, myalgia, and loss of taste persisted: 40%
  patients persisting with alterations in respiratory rate, headache, anosmia, and arthralgia: 20%
  patients persisting with dyspnea: 60%
SARS-CoV2 (Covid-19); day 14, 7 days post-treatment
  patients with mild alterations in heart rate, cough and loss of the sense of taste: 20%
  the other symptoms: disappeared
SARS-CoV2 (Covid-19); [1]
  dyspnea and headache: disappeared in all patients
  oxygen requirement to maintain saturation >90%: none required oxygen
SARS-CoV2 (Covid-19); human, in vivo
  acute respiratory failure syndrome or hospitalization: None
  complications related to SARS-CoV2 infection or due to the use of collagen-PVP: No complications
  death: No patient died
SARS-CoV2 (Covid-19); mild to moderate disease
  adverse effects: No adverse effects were detected, except for pain at the application site
  persistence of pain at the application site: 5 to 15 min
SARS-CoV2 (Covid-19); patients with Covid-19, intramuscular, all cases
  clinical improvement: In all cases there was a clinical improvement
Th2 (CD4+/IL-4+) cells
  number of circulating Th2 cells: modified
